“And” between values parts separate entries of the source, which are not always exact repeats. Equal values may be shown once. Where a name gives a salt, the structure may show the parent alone. Read-outs that look alike come from different tables or passages of the source.
Legend:
[1] = test system: SARS-CoV-2; experiment: Antiviral activity against SARS-CoV-2 in BEC-hACE2 cells (RT-qPCR)
[2] = test system: protein synthesis in BEC-hACE2 cells; experiment: Puromycin pulse labeling, protein synthesis in cultured BEC-hACE2 cells; assay type: cell-based, human; conditions: for inhibition at 1 µM: BEC-hACE2, 1 μM
[3] = test system: HCoV-OC43; experiment: Antiviral activity against HCoV-OC43 in Vero E6 cells (RT-qPCR of N-gene); assay type: cell-based
Experimental: Vero E6 cells (∼5 × 10^4 cells/cm^2 in 24-well plates) were infected with […] at MOI of 20 genomes per cell in 2 % FBS-EMEM at 33 °C, 5 % CO2 with gently mixing for 2 h. Infection medium was removed, cells were washed with fresh medium followed by the addition of compounds at indicated concentrations in 2 % FBS-EMEM. After 72 h, 100 µL of medium was collected and stored at −80 °C for viral RNA isolation and RT-qPCR analysis as detailed below. Drugs were added to the medium prior to and after viral absorption for comparison.
HCoV-OC43 RNA was isolated from 100 µL of medium using Quick-RNA Viral Kit-DX (Zymo Research, CA, USA; R1035). The relative amount of viral genomic RNA was determined with Luna Universal One-Step RT-qPCR Kit (New England Biolabs, MA, USA; E3005). […]
RT-qPCR cycles were set for 20 min at 55 °C, 1 min at 95 °C followed by 45 cycles of 95 °C for 10 s, 48 °C for 30 s and 60 °C for 1 min. The threshold cycle (Ct) for each sample was determined using the Opticon Monitor 3 Program (BioRad). Drug effects on viral propagation were evaluated assuming that a difference of one cycle corresponds to a two-fold difference in the number of copies of viral RNA. Ct values obtained for drug-free samples were considered as 100 % viral propagation.

[4] = target: T1, l-type calcium current ICaL (Homo sapiens, UniProt Q13936); experiment: Patch clamp recording of ICaL in human iPSC-derived cardiomyocytes; assay type: cell-based
T1 construct: host or cells: human iPSC-derived ventricular cardiomyocytes
T1 sequence (Q13936 whole entry): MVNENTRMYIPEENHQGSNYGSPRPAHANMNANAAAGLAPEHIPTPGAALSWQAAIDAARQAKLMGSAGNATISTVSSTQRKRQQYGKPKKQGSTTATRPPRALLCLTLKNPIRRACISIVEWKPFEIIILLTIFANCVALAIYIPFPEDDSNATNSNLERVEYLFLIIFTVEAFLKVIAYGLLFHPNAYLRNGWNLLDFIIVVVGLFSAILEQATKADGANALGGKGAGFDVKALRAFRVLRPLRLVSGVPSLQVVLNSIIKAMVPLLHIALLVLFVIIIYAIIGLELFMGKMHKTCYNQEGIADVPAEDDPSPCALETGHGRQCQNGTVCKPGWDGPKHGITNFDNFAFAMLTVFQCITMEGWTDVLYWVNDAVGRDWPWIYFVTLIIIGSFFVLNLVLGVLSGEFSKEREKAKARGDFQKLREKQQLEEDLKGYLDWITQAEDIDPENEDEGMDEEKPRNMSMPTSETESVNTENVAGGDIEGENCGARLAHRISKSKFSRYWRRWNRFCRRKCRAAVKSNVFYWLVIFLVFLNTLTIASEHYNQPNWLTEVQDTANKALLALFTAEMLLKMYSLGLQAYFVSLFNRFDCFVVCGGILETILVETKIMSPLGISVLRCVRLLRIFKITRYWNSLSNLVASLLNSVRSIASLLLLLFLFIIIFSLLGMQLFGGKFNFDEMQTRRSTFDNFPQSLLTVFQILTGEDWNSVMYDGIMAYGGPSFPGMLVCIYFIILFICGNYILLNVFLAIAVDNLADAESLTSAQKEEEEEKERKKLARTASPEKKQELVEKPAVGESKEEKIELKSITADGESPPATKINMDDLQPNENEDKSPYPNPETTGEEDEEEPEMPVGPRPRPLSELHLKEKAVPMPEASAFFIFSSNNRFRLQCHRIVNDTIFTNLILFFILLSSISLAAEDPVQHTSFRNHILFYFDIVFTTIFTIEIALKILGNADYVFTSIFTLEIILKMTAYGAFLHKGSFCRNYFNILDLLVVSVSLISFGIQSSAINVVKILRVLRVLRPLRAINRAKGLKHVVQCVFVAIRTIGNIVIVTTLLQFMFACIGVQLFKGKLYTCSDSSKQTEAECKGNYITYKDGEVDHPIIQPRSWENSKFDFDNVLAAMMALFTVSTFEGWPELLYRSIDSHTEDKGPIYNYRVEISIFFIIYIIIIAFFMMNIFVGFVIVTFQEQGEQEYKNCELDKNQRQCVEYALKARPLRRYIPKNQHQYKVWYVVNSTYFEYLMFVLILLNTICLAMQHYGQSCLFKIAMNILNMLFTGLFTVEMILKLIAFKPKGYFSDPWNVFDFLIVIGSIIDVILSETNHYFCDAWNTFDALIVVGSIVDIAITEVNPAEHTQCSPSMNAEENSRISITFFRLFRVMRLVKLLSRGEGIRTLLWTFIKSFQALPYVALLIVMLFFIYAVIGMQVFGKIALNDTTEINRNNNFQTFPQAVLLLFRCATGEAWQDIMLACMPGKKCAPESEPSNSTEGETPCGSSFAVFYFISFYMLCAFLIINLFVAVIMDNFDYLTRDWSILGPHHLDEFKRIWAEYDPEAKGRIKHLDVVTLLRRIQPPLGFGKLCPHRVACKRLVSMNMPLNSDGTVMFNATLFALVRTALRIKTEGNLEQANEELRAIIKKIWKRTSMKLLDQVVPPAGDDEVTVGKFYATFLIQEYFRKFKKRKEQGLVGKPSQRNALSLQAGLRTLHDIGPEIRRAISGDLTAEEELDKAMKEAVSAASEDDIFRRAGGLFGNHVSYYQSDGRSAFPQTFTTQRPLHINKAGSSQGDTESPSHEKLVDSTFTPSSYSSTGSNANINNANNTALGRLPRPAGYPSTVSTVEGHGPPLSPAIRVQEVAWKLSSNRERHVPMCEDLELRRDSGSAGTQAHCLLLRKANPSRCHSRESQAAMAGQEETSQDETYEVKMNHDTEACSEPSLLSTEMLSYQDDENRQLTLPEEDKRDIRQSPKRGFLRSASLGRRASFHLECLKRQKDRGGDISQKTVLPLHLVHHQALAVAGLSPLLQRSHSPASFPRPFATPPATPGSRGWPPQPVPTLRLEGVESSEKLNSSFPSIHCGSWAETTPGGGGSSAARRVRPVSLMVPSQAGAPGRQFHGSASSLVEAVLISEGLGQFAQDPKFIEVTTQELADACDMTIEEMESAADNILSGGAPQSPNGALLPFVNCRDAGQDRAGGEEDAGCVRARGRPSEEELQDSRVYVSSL
T1 sequence (P54289 25-956, further chain): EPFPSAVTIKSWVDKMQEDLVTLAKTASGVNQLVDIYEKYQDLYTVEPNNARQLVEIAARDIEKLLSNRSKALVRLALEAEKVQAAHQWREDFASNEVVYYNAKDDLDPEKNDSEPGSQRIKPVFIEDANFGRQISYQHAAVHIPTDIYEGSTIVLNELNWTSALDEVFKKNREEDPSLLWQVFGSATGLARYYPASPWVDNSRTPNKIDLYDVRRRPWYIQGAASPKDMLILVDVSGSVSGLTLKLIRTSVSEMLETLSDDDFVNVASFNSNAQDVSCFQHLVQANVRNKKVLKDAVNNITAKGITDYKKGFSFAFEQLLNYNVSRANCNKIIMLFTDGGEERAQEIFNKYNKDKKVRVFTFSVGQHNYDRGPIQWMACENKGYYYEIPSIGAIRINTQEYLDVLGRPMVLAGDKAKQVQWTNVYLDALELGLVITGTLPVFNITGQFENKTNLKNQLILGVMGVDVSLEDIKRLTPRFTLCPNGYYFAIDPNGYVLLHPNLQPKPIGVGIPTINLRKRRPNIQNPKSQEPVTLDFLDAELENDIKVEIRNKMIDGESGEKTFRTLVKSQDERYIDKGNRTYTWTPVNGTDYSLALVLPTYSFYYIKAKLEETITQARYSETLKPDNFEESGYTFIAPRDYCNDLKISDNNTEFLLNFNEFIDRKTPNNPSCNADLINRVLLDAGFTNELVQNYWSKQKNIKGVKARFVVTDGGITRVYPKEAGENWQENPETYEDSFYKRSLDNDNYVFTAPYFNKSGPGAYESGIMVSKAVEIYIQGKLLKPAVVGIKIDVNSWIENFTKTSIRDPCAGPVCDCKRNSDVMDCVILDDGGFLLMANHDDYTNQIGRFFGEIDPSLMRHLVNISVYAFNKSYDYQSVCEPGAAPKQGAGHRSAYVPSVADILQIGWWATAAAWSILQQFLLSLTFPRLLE
T1 sequence (P54289 957-1103, further chain): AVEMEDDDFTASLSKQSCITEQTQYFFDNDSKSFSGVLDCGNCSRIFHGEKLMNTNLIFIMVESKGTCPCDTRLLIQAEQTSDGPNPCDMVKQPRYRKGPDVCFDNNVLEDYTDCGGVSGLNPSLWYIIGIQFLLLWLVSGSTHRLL
T1 sequence (Q08289 whole entry, further chain): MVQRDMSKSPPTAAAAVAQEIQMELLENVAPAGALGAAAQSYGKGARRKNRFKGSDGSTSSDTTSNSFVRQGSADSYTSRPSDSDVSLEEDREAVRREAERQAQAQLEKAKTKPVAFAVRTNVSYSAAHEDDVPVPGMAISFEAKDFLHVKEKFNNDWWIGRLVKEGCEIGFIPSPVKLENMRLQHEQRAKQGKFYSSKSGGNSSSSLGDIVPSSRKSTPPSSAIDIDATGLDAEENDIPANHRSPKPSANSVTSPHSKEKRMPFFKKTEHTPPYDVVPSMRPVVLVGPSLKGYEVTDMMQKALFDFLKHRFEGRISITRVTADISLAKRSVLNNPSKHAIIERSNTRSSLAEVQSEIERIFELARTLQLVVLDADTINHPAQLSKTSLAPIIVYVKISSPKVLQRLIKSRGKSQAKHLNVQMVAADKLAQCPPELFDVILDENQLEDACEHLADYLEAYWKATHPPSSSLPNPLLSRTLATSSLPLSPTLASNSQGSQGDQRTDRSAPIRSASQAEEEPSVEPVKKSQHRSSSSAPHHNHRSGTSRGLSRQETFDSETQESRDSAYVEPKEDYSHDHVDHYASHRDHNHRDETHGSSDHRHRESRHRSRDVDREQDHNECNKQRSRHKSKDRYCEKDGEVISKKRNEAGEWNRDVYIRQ
Experimental: iPSC cells (Axol Bioscience Ltd, FL, USA) were plated at a density of 25,000 cells/cm^2 on coverslips coated with 1x Axol Fibronectin Coating Solution in Axol Plating Medium (Axol Cardiomyocyte Maintenance Medium, 10 % fetal bovine serum and 10 μM Y-27,632 2HCl) according to manufacturer's instructions. The next day the medium was changed to Axol Cardiomyocyte Maintenance Medium. Cells were maintained at 5 % CO2, 37 °C in humidified conditions. Medium was replaced every other day.
An Axopatch −1D (Axon Instruments: Molecular Devices LLC, CA, USA) amplifier and […] were used for recording and data analysis. Patch electrode resistance was set at 4–6 MΩ and room temperature was 22 ± 1 °C. During the recording, cells were held at −50 mV, then, the voltage was gradually raised to +60 mV in 10 mV increments with 300 ms pulse. The bath solution included the following components: 137 mM TEA-Cl, 1 mM MgCl2, 2 mM CaCl2, 10 mM HEPES, 10 mM glucose (pH 7.4, adjusted with TEA-OH). For the pipette the solution contained: 111 mM CsCl, 20 mM TEA-Cl, 10 mM glucose, 10 mM HEPES, 14 mM EGTA, 5 mM MgATP (pH 7.2, adjusted with CsOH).
D represents the concentrations of a given drug.

[5] = target: protein synthesis in rabbit reticulocyte lysate; experiment: Inhibition of protein synthesis in rabbit reticulocyte lysates (luciferase mRNA translation); assay type: biochemical
Experimental: The TnT® Quick Coupled Transcription/Translation System from Promega (WI, USA; L1170) was used to evaluate inhibitory effects of ipecac alkaloids and cycloheximide on protein synthesis. Assay conditions were employed as recommended by the manufacturer. Briefly, reactions (20 μl) contained 80 % TNT Quick master mix, 20 µM methionine, 40 ng/µL luciferase RNA (Promega; L4561), and test chemicals. Samples were incubated at 30 °C for 90 min and diluted 10-fold with PBS. An aliquot (2 μl) was mixed with 20 μl of luciferase assay reagent (Promega; E1500) and luminescence was measured with a Turner Designs luminometer (model TD-20/20).

[6] = test system: BEC-hACE2 cells; experiment: Sulforhodamine B (SRB) assay in non-infected BEC-hACE2 cells; assay type: cell-based, human; conditions: for GI50 / SRB, TGI: BEC-hACE2, 24 h; for GI50: read-out: SRB, GI50
Experimental: Detailed methods are provided in Supplementary Information.
This method has been used by the National Cancer Institute to evaluate drug candidates for their activities as growth inhibitors and toxins in human cancer cell lines. NCI’s protocols for SRB assay were strictly followed^81, 82. On the day of exposure (Day 0), several wells of untreated cells were fixed by addition of trichloroacetic acid (TCA, 10% V/V) and incubated for one hour at 4°C. The supernatant was discarded, wells washed five times with tap water and then air-dried. Samples were stored at room temperature until cells exposed to ipecac alkaloids or DMSO for 24 h were fixed in a similar manner. For color development, 500 µl of 0.4% SRB reagent prepared in 1% acetic acid was added to fixed cells and samples were incubated at room temperature for 15 min with gentle rocking. Unbound dye was removed by five washes with 1% acetic acid and plates were air-dried. Trizma base (10 mM) was used to dissolve the stain and absorbance was measured at 515 nm using a spectrophotometer. By comparing absorption values obtained at day 0 to the signal at day 1, with and without drugs, this protocol permits distinguishing growth inhibition from toxicity of the test compounds.

[7] = target: sodium channel; parameters: method as in Lemmens-Gruber et al., 1997; conditions: ref Lemmens-Gruber et al., 1997; read-out: Kd, sodium channel reduction; cited from earlier work
[8] = test system: Entamoeba histolytica; conditions: in vitro; ref Burchard and Mirelman, 1988; cited from earlier work
[9] = Severe acute respiratory syndrome coronavirus 2, read-out: Anti-SARS-CoV2, IC50, subconfluent BEC-hACE2, drug after viral absorption, 24 hpi
[10] = Severe acute respiratory syndrome coronavirus 2, read-out: Anti-SARS-CoV-2 IC50, BEC-hACE2, 24 hpi
[11] = Betacoronavirus 1, OC43, Vero C1008, 72 h, Vero E6, 72 h, read-out: Antiviral IC50
[12] = Betacoronavirus 1, OC43, Vero C1008, Vero E6, drug added after viral absorption, 72 hpi, read-out: Antiviral IC50
[13] = Homo sapiens, read-out: Protein synthesis inhibition,%

CCC1=C(C[C@H]2NCCc3cc(OC)c(OC)cc32)C[C@H]2c3cc(OC)c(OC)cc3CCN2C1 [DHE4, 4H-Benzo[a]quinolizine, 3-ethyl-1,6,7,11b-tetrahydro-9,10-dimethoxy-2-[[(1R)-1,2,3,4-tetrahydro-6,7-dimethoxy-1-isoquinolinyl]methyl]-, (11bS)-]
SI from MTS CC50 (50 % effect) ([1]; SARS-CoV-2, BEC-hACE2): exceed 1500 | IC50 [1, 9]: 88 ± 23 nM | IC50 [1, 10]: 50 to 100 nM | inhibition at 1 µM ([2]; Homo sapiens): 97% | IC50 [3, 11]: 40 to 60 nM | IC50 [3, 12]: 63 ± 4 nM | IC50 ([3]; Betacoronavirus 1, OC43, Vero C1008, read-out: Antiviral IC50, Vero E6, drug 1 h before viral absorption and 72 h after infection (1 hbi/72 hpi)): 66 ± 6 nM | Selectivity index, (SI) CC50/IC50 ([3]; HCoV-OC43, Vero E6, 72 hpi): 52 | Kd [4]: 60000 nM | Peak current density, ICaL ([4]; human IPSC-derived cardiomyocytes, DHE4 30 uM (control 13.5)): 8.9 | Peak current density, ICaL, washout ([4]; human IPSC-derived cardiomyocytes, after washout of DHE4 30 uM (control 13.5)): 9.8 | IC50 ([5]; luciferase mRNA, 30 °C, 90 min): 1300 nM and 1330 nM | GI50 [6]: 62 ± 17 nM | GI50 ([6]; Homo sapiens, 24 h): 60 nM

CC[C@H]1CN2CCc3cc(OC)c(OC)cc3[C@@H]2C[C@@H]1C[C@H]1NCCc2cc(OC)c(OC)cc21 [Emetine, 2H-Benzoaquinolizine, 3-ethyl-1,3,4,6,7,11b-hexahydro-9,10-dimethoxy-2-(1R)-1,2,3,4-tetrahydro-6,7-dimethoxy-1-isoquinolinylmethyl-, dihydrochloride, (2S,3R,11bS)-, reference compound]
IC50 [1, 9]: 52 ± 3 nM | IC50 [1, 10]: ~52 nM | inhibition at 0.5 µM ([1]; Severe acute respiratory syndrome coronavirus 2, read-out: Inhibition of viral propagation): ≥ 90% | IC50 ([1]; read-out: Anti-SARS-CoV-2 IC50, BEC-hACE2, 24 hpi): 50 to 100 nM | IC50 ([2]; Homo sapiens, read-out: IC50, protein synthesis): ~200 nM | inhibition at 0.05 µM [2, 13]: 7% | inhibition at 0.1 µM [2, 13]: 30% | inhibition at 0.3 µM [2, 13]: 80% | inhibition at 1000 µM [2, 13]: 97% | inhibition at 0.5 µM ([2]; Homo sapiens, 0.5 μM, read-out: Inhibition of translation activity in host cells): ≥ 90% | inhibition at 1 µM ([2]; Homo sapiens): 97% | inhibition at 10 µM ([2]; Homo sapiens, BEC-hACE2, 10 μM): 100% | IC50 ([2]; Homo sapiens, BEC-hACE2, read-out: IC50, protein synthesis inhibition): ~120 nM | IC50 [3, 11]: 40 to 60 nM | IC50 ([3]; Betacoronavirus 1, OC43, Vero C1008, Vero E6, drug 1 h before viral absorption and 72 h after infection (1 hbi/72 hpi), read-out: Antiviral IC50): 44 ± 2 nM | IC50 [3, 12]: 40 ± 2 nM | Estimated reduction in ICaL ([4]; human cardiomyocytes, assuming 25 µM): approximately one-third | IC50 ([5]; luciferase mRNA, 30 °C, 90 min): 1200 nM and 1210 nM | SRB, TGI [6]: 250 to 500 nM | SRB, TGI ([6]; listed as EMT): ∼ 0.25–0.5 μM | GI50 ([6]; Homo sapiens, 24 h): 110 nM | GI50 ([6]; listed as EMT): 112 ± 22 nM | Kd [7]: 15000 nM | Concentration required to inhibit growth of Entamoeba histolytica [8]: 12 to 25 µM

CC[C@H]1CN2CCc3cc(OC)c(OC)cc3[C@@H]2C[C@@H]1C[C@@H]1NCCc2cc(OC)c(OC)cc21.Cl.Cl [Isoemetine, 2H-Benzoaquinolizine, 3-ethyl-1,3,4,6,7,11b-hexahydro-9,10-dimethoxy-2-(1S)-1,2,3,4-tetrahydro-6,7-dimethoxy-1-isoquinolinylmethyl-, dihydrochloride, (2S,3R,11bS)-]
IC50 ([1]; read-out: Anti-SARS-CoV2, IC50, subconfluent BEC-hACE2, drug after viral absorption, 24 hpi): 16500 nM | IC50 ([1]; read-out: Anti-SARS-CoV2, IC50, subconfluent BEC-hACE2, drug after viral absorption, 24 hpi, listed as ISOEMT): 16500 ± 6240 nM | Protein synthesis inhibition,% ([2]; BEC-hACE2, 10 μM, 10 µM): 20% | Protein synthesis inhibition,% ([2]; BEC-hACE2, 10 μM, listed as ISOEMT, 10 µM): 18% | Protein synthesis inhibition,% ([2]; BEC-hACE2, 30 μM, 30 µM): 50% | Protein synthesis inhibition,% ([2]; BEC-hACE2, 30 μM, listed as ISOEMT, 30 µM): 47% | IC50 ([3]; Vero E6, drug added after viral absorption, 72 hpi, read-out: Antiviral IC50): 1050 ± 213 nM | Inhibitory effects on translation in rabbit reticulocyte lysate ([5]; concentration range 0.1 - 100 μM): no inhibitory effects | IC50, protein synthesis inhibition in rabbit reticulocyte lysate ([5]; luciferase mRNA, 30 °C, 90 min): Not active | SRB, TGI [6]: ~200000 nM | GI50 [6]: 19400 ± 3860 nM | SRB, nature of the effect ([6]; BEC-hACE2, at ∼200 μM): toxic
